In patent US9699976B2, “Direct and indirect organogenesis of Jatropha” (TEMASEK LIFE SCIENCES LABORATORY LTD., priority 2012, dated 2017):

Experiments:
[1] = system: thin sections of petiole, pedicle, peduncle and rachis explants of Jatropha curcas; test: Shoot bud induction directly from thin sections of explants (direct organogenesis); format: cell-based; settings: only BA and Kn alone in the medium
Experimental: The petiole from 2nd to 4th leaf and pedicle, peduncle and rachis from inflorescence before the onset of flowering were selected as explant for the present study. Explants were initially washed in running tap water for 5 min and followed by wash in chlorohexidine surgical wash (two drops in 100 ml of distilled water) for 10 min to remove the adhering particles on the surface. The explants were surface sterilized in 0.1% HgCl2 for 10 min followed by 3 washes using sterilized distilled water.
The chemicals used in the present study were purchased from Duchefa Biochemie, Haarlem, The Netherlands and Sigma Aldrich, Inc., St Louis, USA. The culture media composed of MS basal salts, B5 vitamins, 3% sucrose and 0.8% agar as solidifying agent. The pH of the media is adjusted to 5.6-5.8 before autoclaving. All the cultures were incubated at 25±2° C. with 16 hr light/8 hr dark photoperiod conditions at a light intensity of 150 μEm^−2s^−1. The culture conditions are same throughout the stages of organogenesis.
The thin sections of all the explants (petiole, pedicle, peduncle and rachis) and the calli initiated from different explants (petiole, pedicle, […]; […]).
Thin sections of explants placed on shoot induction medium expanded and bended towards up and started to produce adventitious buds from the explants within 2 weeks. […]

[2] = system: elongated shoots of Jatropha curcas; test: Maturation of elongated shoots on maturation medium; format: cell-based; settings: BA present in maturation medium; abnormal shoot production and in vitro flowering
Experimental: The chemicals used in the present study were purchased from Duchefa Biochemie, Haarlem, The Netherlands and Sigma Aldrich, Inc., St Louis, USA. The culture media composed of MS basal salts, B5 vitamins, 3% sucrose and 0.8% agar as solidifying agent. The pH of the media is adjusted to 5.6-5.8 before autoclaving. All the cultures were incubated at 25±2° C. with 16 hr light/8 hr dark photoperiod conditions at a light intensity of 150 μEm^−2s^−1. The culture conditions are same throughout the stages of organogenesis. […] Elongated shoots were separated from the clump and cultured on the Maturation medium containing Kn (1.17 μM), AdSO4 (135.75 μM), GA3 (0.73 μM) IBA (0.49 μM) and casein hydrolysate (100 mg/l). Well elongated shoots were separated carefully from the clumps and transferred to maturation medium to induce physiological maturity. Most of the shoots culture in the maturation medium reached maturity within 3 weeks whereas some shoots still need additional 3 weeks and were cultured in the same medium to bring physiological maturity.

[3] = system: petiole explant of Jatropha curcas; settings: medium containing 2.27 μM TDZ; Kumar et al. (2011b); cited from earlier work

## c1ccc(CNc2ncnc3nc[nH]c23)cc1 [BA, 6-benzylaminopurine]
[1]
  effect on shoot bud induction from the tested explants: no effect
[2]
  effect of presence in maturation medium on shoot maturation: hindered maturation

## c1coc(CNc2ncnc3[nH]cnc23)c1 [Kn, kinetin]
[1]
  effect on shoot bud induction from the tested explants: no effect

## O=C(Nc1ccccc1)Nc1cnns1 [TDZ, thidiazuron]
[3]
  average shoots per 0.5 cm length petiole explant: 4.98 shoots per explant
  response with petiole explant: 57.61%
